Target: Cytochrome P450 3A4 (Homo sapiens, UniProt P08684)
Sequence (P08684 whole entry): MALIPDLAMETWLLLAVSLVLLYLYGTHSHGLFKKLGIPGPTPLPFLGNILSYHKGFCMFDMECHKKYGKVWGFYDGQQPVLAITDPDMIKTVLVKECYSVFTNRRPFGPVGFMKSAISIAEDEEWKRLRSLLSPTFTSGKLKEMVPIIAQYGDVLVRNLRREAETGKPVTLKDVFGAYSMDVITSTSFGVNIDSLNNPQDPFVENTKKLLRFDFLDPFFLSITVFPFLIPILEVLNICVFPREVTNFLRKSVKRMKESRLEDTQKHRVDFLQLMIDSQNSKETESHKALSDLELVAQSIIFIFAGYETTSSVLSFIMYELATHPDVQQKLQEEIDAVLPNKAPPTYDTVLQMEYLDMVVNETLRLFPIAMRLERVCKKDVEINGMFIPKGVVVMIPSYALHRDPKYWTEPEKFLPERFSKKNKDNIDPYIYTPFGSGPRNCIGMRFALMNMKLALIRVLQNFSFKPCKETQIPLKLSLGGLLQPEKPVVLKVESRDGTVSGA
Assay: Inhibition of human CYP3A4
Assay type: ADME
`O=C1c2cccc3[nH]nc(c23)CN1[C@H]1CN2CCC1CC2` showed an IC50 of under 10000 nM.
`O=C(N[C@H]1CN2CCC1CC2)c1c[nH]c2ccsc2c1=O` [PUMOSETRAG] gave an IC50 of 9300 nM.
`Cn1nc2c3c(cccc31)C(=O)N([C@H]1CN3CCC1CC3)C2` showed an IC50 of under 10000 nM.

System: not listed separately
Assay: Intrinsic clearance in human liver microsomes assessed per mg of protein
Assay type: ADME, Microsome
With `O=C1c2cccc3[nH]nc(c23)CN1[C@H]1CN2CCC1CC2` the microsomal CLint was 7.3 µL/min/mg.
In the case of `O=C(N[C@H]1CN2CCC1CC2)c1c[nH]c2ccsc2c1=O` [PUMOSETRAG], the microsomal CLint is reported as 24 µL/min/mg.
With `Cn1nc2c3c(cccc31)C(=O)N([C@H]1CN3CCC1CC3)C2` the microsomal CLint was 3.8 µL/min/mg.

System: Mus musculus
Assay: Partial agonist activity at 5HT3 receptor in po dosed mouse assessed inhibition of serotonin-induced bradycardia administered 1 hr before serotonin challenge by von Bezold-Jarisch reflex test
Assay type: functional
Compound `O=C1c2cccc3[nH]nc(c23)CN1[C@H]1CN2CCC1CC2` has an ED50 of 0.64 mg/kg.
`O=C(N[C@H]1CN2CCC1CC2)c1c[nH]c2ccsc2c1=O` [PUMOSETRAG] gave an ED50 of 0.96 mg/kg.
`Cn1nc2c3c(cccc31)C(=O)N([C@H]1CN3CCC1CC3)C2` showed an ED50 of 0.25 mg/kg.
With `Cc1[nH]cnc1CN1CCc2c(c3ccccc3n2C)C1=O` [ALOSETRON] the ED50 was 0.02 mg/kg.

System: not listed separately
Assay: Inhibition of human CYP450
Assay type: ADME
With `O=C1c2cccc3[nH]nc(c23)CN1[C@H]1CN2CCC1CC2` the IC50 was over 50000 nM.
For `Cn1nc2c3c(cccc31)C(=O)N([C@H]1CN3CCC1CC3)C2`, the IC50 was over 50000 nM.

System: not listed separately
Assay: Solubility of the compound at pH 7.4 phosphate buffered saline
Assay type: physicochemical
`Cn1nc2c3c(cccc31)C(=O)N([C@H]1CN3CCC1CC3)C2` gave a solubility of over 500 µM.

Target: T1, 5-hydroxytryptamine receptor 3A (Homo sapiens, UniProt P46098)
T1 sequence (P46098 whole entry): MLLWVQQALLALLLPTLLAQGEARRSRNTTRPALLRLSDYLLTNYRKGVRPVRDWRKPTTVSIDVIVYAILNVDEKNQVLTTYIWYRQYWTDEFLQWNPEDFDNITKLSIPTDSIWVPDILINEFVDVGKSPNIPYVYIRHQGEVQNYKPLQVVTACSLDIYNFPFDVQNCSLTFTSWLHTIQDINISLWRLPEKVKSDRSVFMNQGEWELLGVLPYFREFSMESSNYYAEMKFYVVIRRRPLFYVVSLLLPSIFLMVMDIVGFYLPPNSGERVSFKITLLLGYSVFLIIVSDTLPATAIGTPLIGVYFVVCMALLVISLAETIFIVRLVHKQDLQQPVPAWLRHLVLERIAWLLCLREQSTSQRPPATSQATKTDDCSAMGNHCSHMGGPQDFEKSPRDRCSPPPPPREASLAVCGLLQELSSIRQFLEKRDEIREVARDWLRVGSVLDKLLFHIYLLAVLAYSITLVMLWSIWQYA
Assay: Partial agonist activity at human 5HT3A receptor expressed in HEK293 cells assessed as decrease in 10 uM 5-chloroindole-induced increase in intracellular calcium release
Assay type: functional, cell-based
`O=C(N[C@H]1CN2CCC1CC2)c1c[nH]c2ccsc2c1=O` [PUMOSETRAG] gave an EC50 of 9.2 nM.
In the case of `Cn1nc2c3c(cccc31)C(=O)N([C@H]1CN3CCC1CC3)C2`, the EC50 is reported as 6.9 nM.

Target: T1, 5-hydroxytryptamine receptor 3A
Assay: Partial agonist activity at human 5HT3A receptor expressed in HEK293 cells assessed as effect on serotonin-induced response
Assay type: functional, cell-based
With `O=C(N[C@H]1CN2CCC1CC2)c1c[nH]c2ccsc2c1=O` [PUMOSETRAG] the EC50 was 5.4 nM.
In the case of `Cn1nc2c3c(cccc31)C(=O)N([C@H]1CN3CCC1CC3)C2`, the EC50 is reported as 12.6 nM.

Target: 5-hydroxytryptamine receptor 4 (Homo sapiens) (UniProt Q13639)
Sequence (Q13639 whole entry): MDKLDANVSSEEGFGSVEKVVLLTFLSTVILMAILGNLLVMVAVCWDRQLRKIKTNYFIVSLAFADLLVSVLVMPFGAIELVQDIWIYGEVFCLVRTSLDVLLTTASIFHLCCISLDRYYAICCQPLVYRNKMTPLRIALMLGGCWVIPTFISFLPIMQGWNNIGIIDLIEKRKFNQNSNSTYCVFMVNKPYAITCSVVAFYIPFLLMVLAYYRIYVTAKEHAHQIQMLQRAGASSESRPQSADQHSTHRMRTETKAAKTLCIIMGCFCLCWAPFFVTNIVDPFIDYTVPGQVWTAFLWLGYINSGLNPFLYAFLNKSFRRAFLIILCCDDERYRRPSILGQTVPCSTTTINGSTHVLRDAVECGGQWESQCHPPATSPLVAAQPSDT
Assay: Inhibition of 5HT4 receptor at 1 uM
Work on `O=C1c2cccc3[nH]nc(c23)CN1[C@H]1CN2CCC1CC2` yielded an inhibition of over 50%.
`O=C1c2cccc3[nH]nc(c23)CN1[C@@H]1CN2CCC1CC2` gave an inhibition of over 50%.

Target: T2, 5-hydroxytryptamine receptor 1A (Homo sapiens) (UniProt P08908)
T2 sequence (whole entry): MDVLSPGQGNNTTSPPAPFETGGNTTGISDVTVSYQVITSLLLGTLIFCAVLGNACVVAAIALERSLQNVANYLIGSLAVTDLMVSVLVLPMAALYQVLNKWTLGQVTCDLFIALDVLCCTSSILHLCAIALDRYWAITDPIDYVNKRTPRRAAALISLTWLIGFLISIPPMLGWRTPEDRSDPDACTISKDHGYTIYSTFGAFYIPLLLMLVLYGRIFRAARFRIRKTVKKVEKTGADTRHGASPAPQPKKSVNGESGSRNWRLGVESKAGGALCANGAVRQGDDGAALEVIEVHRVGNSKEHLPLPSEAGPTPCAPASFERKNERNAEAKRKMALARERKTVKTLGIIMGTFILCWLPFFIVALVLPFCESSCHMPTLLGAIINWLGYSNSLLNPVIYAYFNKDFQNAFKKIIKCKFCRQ
Assay: Inhibition of 5HT1A receptor at 1 uM
`O=C1c2cccc3[nH]nc(c23)CN1[C@H]1CN2CCC1CC2` gave an inhibition of over 50%.
Work on `O=C1c2cccc3[nH]nc(c23)CN1[C@@H]1CN2CCC1CC2` yielded an inhibition of over 50%.

Target: T1, 5-hydroxytryptamine receptor 3A
Assay: Binding affinity to human 5HT3A receptor
Assay type: single protein
`Cn1nc2c3c(cccc31)C(=O)N([C@@H]1CN3CCC1CC3)C2` gave a Ki of 0.7 nM.
Compound `CC(C)Cn1nc2c3c(cccc31)C(=O)N([C@@H]1CN3CCC1CC3)C2` has a Ki of 2.4 nM.
In the case of `O=C1c2cccc3c2c(nn3Cc2ccccc2)CN1[C@H]1CN2CCC1CC2`, the Ki is reported as 7.1 nM.
`Cn1cc2c3c(cccc31)C(=O)N([C@H]1CN3CCC1CC3)C2` showed a Ki of 0.9 nM.
Work on `Cn1nc2c3c(cccc31)C(=O)N([C@H]1CN3CCC1CC3)C2` yielded a Ki of 1.7 nM.
`CCn1nc2c3c(cccc31)C(=O)N([C@H]1CN3CCC1CC3)C2` gave a Ki of 2 nM.
`Cn1nc2c3c(cc(F)cc31)C(=O)N([C@H]1CN3CCC1CC3)C2` gave a Ki of 2 nM.
Work on `CCn1nc2c3c(cccc31)C(=O)N([C@@H]1CN3CCC1CC3)C2` yielded a Ki of 1.6 nM.
Compound `Cn1cc2c3c(cccc31)C(=O)N([C@@H]1CN3CCC1CC3)C2` has a Ki of 0.7 nM.
